Source: patent publication US20240000753A1, “METHODS AND COMPOSITIONS TO INCREASE LIFESPAN AND HEALTHSPAN BY MIMICKING THE EFFECTS OF TIME-RESTRICTED FEEDING” (The Trustees of Columbia University in the City of New York, priority 2020, published 2024)

Test system: Drosophila
Test: Lifespan analysis of flies fed RU486
Type: in vivo
Details: flies lacking UAS-RNAi transgenes; RU486 fed from day 5 post-eclosion until death (FIG. 5K)
Description: All drugs were supplemented into cooled (65° C.) liquid adult medium (containing 3% yeast extract) following preparation to the following final concentration(s): RU486 (Cayman Chemical) was dissolved in ethanol was supplemented into medium after day 5 of eclosion at a final concentration of 100 μg/mL (with the exception of daGS>UAS-atg1 and controls, 0.5 μg/mL) vehicle controls were supplemented with same volume of ethanol alone. Timed RU486 feeding of daGS>UAS-atg1 consisted of flies being fed 0.5 μg/mL in standard adult media or fasting media only during the fasting phase, then flipped to vehicle control food the following morning only from days 10-40 of adulthood. Vehicle only controls were flipped at the same time for consistency. For gut microbe clearance, the medium contained 500 μg/mL ampicillin, 50 μg/mL tetracycline, and 200 μg/mL rifamycin in 50% ethanol. Same volume of 50% ethanol alone was used as the vehicle control. Drosophila were reared from embryos in low-density bottles with standard yeast cornmeal-agar media listed above (Archon Scientific) Newly eclosed flies (˜24 hours) were collected onto adult medium w/3% yeast extract and allowed to mate for 48 hours. […] Death was scored at time of flipping, and lifespan compared by log-rank analysis.

**Q.** Which “effect on iTRF-mediated lifespan extension” value does the source give for `CC#C[C@]1(O)CC[C@H]2[C@@H]3CCC4=CC(=O)CCC4=C3[C@@H](c3ccc(N(C)C)cc3)C[C@@]21C` [RU486] here?
**A.** no effect
